Measured values published in article PMC11149885 (PLOS ONE, 2024).
Like-named read-outs stand apart in the source and are kept apart here.

Key:
[1] = target: TIE2 (Homo sapiens, UniProt Q02763); experiment: Ten-dose IC50 measurement
[2] = target: T1, PDGFRβ (Homo sapiens, UniProt P09619); experiment: HotSpot kinase screen; assay type: biochemical; conditions: 10μM ATP
T1 construct: purchased Reaction Biology Corporation (contract assay)

[3] = target: T2, VEGFR2 (Homo sapiens, UniProt P35968); experiment: Previously reported IC50 (literature); assay type: biochemical; conditions: nM value converted, S2 Fig legend
T2 construct: purchased Millipore Corporation (Dundee, Scotland) or Reaction Biology Corporation (contract assay)
T2 sequence (P35968 20-1356): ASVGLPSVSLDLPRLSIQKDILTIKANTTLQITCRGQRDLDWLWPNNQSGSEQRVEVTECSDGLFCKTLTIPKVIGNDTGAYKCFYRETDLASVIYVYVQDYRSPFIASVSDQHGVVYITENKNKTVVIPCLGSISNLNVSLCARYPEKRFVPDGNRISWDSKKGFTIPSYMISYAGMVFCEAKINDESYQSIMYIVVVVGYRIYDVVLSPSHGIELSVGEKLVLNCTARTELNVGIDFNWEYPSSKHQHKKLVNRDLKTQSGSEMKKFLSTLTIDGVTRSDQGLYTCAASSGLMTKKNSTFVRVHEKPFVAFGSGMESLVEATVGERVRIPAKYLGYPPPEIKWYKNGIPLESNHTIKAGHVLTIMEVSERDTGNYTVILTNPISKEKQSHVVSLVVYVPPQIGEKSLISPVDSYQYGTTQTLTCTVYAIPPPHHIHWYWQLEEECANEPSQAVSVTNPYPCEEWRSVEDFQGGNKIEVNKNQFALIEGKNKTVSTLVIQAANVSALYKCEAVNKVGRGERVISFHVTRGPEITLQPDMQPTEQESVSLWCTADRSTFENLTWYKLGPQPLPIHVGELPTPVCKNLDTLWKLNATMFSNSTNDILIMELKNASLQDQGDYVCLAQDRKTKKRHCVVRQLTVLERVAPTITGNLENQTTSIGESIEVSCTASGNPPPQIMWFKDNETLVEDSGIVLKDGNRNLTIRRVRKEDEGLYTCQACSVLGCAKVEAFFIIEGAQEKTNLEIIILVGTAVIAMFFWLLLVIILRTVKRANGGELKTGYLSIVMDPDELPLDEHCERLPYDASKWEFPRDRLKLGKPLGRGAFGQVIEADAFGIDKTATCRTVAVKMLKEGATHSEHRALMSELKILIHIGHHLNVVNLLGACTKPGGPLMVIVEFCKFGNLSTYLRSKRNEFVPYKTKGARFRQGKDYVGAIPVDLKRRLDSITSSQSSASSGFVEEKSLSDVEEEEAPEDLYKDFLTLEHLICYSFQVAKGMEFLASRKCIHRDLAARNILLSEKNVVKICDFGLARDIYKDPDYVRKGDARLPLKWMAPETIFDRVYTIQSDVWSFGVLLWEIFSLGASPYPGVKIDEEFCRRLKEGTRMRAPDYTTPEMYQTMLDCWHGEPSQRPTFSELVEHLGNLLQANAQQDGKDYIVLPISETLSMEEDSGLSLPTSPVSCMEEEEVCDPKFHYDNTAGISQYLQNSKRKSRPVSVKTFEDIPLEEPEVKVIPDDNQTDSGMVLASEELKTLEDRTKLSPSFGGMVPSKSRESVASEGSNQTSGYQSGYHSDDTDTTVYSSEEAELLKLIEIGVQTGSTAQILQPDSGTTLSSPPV

[4] = target: T3, VEGFR1 (Homo sapiens, UniProt P17948); experiment: HotSpot kinase screen; assay type: biochemical; parameters: purchased Millipore Corporation (Dundee, Scotland) or Reaction Biology Corporation (contract assay); conditions: 10μM ATP
T3 sequence (P17948 27-1338): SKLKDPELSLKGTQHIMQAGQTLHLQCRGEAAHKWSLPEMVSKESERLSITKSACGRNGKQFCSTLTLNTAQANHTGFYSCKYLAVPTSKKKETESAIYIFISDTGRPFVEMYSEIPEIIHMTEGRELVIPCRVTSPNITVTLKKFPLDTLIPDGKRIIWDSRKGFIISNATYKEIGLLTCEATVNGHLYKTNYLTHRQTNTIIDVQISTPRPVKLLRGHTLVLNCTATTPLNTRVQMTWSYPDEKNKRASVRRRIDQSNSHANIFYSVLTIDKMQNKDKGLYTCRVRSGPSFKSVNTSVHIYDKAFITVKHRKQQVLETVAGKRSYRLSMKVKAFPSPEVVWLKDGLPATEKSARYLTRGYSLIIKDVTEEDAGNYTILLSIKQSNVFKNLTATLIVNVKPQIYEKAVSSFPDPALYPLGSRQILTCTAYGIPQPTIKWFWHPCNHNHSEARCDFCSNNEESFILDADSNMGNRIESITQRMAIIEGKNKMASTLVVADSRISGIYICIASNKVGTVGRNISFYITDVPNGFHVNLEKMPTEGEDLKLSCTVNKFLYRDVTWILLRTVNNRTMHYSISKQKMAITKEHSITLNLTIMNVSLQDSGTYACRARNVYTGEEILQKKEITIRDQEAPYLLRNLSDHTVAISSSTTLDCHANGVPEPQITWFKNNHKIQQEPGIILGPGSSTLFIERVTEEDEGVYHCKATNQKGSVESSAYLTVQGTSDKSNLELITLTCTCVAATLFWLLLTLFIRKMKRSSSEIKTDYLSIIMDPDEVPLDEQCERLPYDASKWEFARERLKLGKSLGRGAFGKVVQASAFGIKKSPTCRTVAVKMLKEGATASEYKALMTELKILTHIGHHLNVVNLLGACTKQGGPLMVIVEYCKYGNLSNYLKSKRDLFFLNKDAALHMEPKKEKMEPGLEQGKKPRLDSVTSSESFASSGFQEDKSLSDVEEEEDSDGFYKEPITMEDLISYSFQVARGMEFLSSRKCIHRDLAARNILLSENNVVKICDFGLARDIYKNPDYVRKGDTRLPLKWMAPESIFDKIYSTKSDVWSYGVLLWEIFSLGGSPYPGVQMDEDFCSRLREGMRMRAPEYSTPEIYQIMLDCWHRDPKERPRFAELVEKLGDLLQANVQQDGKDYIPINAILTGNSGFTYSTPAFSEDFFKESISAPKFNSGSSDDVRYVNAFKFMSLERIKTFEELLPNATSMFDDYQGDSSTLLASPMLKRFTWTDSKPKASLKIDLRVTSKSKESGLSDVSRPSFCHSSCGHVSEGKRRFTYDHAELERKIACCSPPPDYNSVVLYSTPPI
Procedure: (§1) Measurement of kinase activity was performed by Reaction Biology Corporation (Reaction Biology Corporation, Malvern, PA), using the HotSpot™ assay. The screen focused on RTKs reported in the literature to play a major role in the regulation of angiogenesis (VEGFR1, VEGFR2, and VEGFR3; fibroblast growth factor receptor [FGFR] 1, 2, and 3; and platelet-derived growth factor receptor beta [PDGFRβ]) as well as an RTK essential for maintaining blood vessel stability (TIE2). For the profiling, specific kinase/substrate pairs and required cofactors were prepared in a reaction buffer (20mM Hepes [pH 7.5], 10mM MgCl2, 1mM EGTA, 0.02% Brij35, 0.02 mg/mL BSA, 0.1mM Na3VO4, 2mM DTT, 1% dimethyl sulfoxide [DMSO]). TKI compounds were diluted to 10μM and 1μM concentrations for the screens and after addition to the reaction buffer incubated for 20 minutes, followed by the addition of a mixture of ATP (Sigma, St. Louis, MO) and ^33P-ATP (Perkin Elmer, Waltham, MA) to a final ATP concentration of 10μM. Reactions were carried out at room temperature for 2 hours, followed by spotting of the reactions onto P81 ion exchange filter paper (Whatman Inc., Piscataway, NJ). Unbound phosphate was removed by extensive washing of the filters. […] Kinome TREEspot images representing levels of inhibition were prepared using Kinome Mapper (https://www.reactionbiology.com/resources/tools/kinase-mapper).

[5] = target: T4, VEGFR3 (Homo sapiens, UniProt P35916); experiment: Ten-dose IC50 measurement; assay type: biochemical; conditions: 10μM ATP
T4 construct: purchased Millipore Corporation (Dundee, Scotland) or Reaction Biology Corporation (contract assay)
T4 sequence (P35916 25-1363): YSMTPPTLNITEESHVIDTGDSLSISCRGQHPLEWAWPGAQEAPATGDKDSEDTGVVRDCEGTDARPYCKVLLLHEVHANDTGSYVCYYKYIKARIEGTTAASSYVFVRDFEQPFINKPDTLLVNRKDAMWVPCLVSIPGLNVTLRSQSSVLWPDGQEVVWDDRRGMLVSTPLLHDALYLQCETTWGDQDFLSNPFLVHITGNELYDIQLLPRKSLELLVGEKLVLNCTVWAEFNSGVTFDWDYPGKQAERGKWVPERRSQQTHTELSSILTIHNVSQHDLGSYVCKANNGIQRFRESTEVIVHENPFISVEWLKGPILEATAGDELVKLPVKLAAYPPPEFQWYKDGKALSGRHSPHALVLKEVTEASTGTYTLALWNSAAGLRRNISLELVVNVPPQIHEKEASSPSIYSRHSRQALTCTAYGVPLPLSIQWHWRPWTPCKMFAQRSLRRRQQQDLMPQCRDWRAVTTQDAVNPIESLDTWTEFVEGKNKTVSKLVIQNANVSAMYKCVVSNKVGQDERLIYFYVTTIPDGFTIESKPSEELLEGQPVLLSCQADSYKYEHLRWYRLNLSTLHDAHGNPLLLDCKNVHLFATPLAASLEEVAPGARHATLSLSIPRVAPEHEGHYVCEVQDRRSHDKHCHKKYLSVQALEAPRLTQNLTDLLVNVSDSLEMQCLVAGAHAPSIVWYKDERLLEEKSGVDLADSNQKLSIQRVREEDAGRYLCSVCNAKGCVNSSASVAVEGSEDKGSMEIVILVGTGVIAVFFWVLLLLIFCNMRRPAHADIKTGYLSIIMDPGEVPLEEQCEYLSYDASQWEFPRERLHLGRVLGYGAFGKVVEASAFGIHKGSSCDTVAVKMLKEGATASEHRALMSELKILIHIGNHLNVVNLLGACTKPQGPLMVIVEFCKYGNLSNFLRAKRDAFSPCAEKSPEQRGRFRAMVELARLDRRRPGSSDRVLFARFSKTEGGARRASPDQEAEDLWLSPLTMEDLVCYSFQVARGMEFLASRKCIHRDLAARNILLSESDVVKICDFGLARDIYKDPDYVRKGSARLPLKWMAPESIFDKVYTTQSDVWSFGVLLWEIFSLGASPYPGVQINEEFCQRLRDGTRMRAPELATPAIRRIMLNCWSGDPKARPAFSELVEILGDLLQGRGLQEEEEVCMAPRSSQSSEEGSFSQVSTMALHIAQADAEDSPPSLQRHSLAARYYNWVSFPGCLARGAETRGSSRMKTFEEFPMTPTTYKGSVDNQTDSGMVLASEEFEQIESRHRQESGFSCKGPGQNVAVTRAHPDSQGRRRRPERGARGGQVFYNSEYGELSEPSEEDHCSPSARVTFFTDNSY

[6] = target: T5, FGFR2 (Homo sapiens, UniProt P21802); experiment: HotSpot kinase screen; assay type: biochemical; conditions: 10μM ATP
T5 construct: purchased Reaction Biology Corporation (contract assay)
Procedure: as §1

[7] = target: T4, VEGFR3; experiment: HotSpot kinase screen; assay type: biochemical; conditions: 10μM ATP
Procedure: as §1

[8] = target: T2, VEGFR2; conditions: cited from earlier work
[9] = target: T6, FGFR1 (Homo sapiens, UniProt P11362); experiment: HotSpot kinase screen; assay type: biochemical; conditions: 10μM ATP
T6 construct: purchased Reaction Biology Corporation (contract assay)

[10] = target: T3, VEGFR1; experiment: Ten-dose IC50 measurement
[11] = target: T2, VEGFR2; experiment: HotSpot kinase screen; assay type: biochemical; conditions: 10μM ATP
[12] = target: T2, VEGFR2; experiment: Ten-dose IC50 measurement; assay type: biochemical; conditions: 10μM ATP
[13] = target: T7, FGFR3 (Homo sapiens, UniProt P22607); experiment: HotSpot kinase screen; assay type: biochemical; conditions: 10μM ATP
T7 construct: purchased Reaction Biology Corporation (contract assay)

Sequence of TIE2 (Q02763 23-1124): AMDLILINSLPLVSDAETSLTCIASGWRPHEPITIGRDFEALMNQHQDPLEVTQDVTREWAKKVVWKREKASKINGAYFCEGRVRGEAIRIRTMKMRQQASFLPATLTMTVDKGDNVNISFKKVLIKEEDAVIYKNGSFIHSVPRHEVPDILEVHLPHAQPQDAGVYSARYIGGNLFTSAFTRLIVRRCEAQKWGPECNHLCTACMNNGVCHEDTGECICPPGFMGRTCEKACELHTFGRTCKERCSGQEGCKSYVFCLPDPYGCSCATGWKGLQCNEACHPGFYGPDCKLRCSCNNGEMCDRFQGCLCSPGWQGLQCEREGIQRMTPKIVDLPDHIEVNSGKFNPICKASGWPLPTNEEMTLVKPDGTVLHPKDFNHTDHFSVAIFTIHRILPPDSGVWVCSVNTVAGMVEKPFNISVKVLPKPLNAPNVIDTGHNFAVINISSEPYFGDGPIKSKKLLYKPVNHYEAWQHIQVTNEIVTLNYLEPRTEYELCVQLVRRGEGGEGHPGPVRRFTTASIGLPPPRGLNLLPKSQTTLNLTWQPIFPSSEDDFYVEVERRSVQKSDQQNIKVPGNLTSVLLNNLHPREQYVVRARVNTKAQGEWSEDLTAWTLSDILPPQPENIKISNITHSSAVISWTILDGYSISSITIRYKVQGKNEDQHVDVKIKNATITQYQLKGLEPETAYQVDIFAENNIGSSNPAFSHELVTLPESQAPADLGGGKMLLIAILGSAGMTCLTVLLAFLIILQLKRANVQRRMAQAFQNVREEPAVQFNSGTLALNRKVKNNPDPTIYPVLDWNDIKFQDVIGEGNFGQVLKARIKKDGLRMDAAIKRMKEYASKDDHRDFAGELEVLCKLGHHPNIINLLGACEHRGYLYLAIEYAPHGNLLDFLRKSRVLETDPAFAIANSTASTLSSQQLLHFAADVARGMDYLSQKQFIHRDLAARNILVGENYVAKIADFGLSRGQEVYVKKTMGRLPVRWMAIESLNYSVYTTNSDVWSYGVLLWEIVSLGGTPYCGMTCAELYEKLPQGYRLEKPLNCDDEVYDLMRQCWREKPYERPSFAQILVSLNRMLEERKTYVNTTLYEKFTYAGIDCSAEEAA

## Cc1[nH]c(/C=C2\C(=O)Nc3ccc(F)cc32)c(C)c1C(=O)N[C@H]1CCN(C(=O)N(C)C)C1 [Vorolanib]
[1]; 1.00E-05 M TKI, 10μM ATP
  %Activity TIE2: 69.30%
[1]; 1.11E-06 M TKI, 10μM ATP
  %Activity TIE2: 100.16%
[1]; 1.37E-08 M TKI, 10μM ATP
  %Activity TIE2: 100.50%
[1]; 1.52E-09 M TKI, 10μM ATP
  %Activity TIE2: 103.72%
[1]; 3.33E-06 M TKI, 10μM ATP
  %Activity TIE2: 83.50%
[1]; 3.70E-07 M TKI, 10μM ATP
  %Activity TIE2: 100.13%
[1]; 4.12E-08 M TKI, 10μM ATP
  %Activity TIE2: 99.77%
[1]; 4.57E-09 M TKI, 10μM ATP
  %Activity TIE2: 100.65%
[1]; 5.08E-10 M TKI, 10μM ATP
  %Activity TIE2: 98.18%
[1]; IC50 TIE2, 10μM ATP, S1 Dataset
  IC50: 20700 nM
[1]; TIE2 IC50, determined by Reaction Biology (US), 10μM ATP
  IC50: 20700 nM
[2]; 1uM TKI
  Avg % Inhibition PDGFRb: 83.57%
[2]; 10uM TKI
  Avg % Inhibition PDGFRb: 94.8%
[3]
  IC50: 52.3 nM
[4]; 1uM TKI
  Avg % Inhibition VEGFR1: 54.61%
[4]; 10uM TKI
  Avg % Inhibition VEGFR1: 77.43%
[5]; S1 Dataset, read-out: IC50 VEGFR3
  IC50: 3.39e-08 M
[5]; 1.00E-05 M TKI
  %Activity VEGFR3: 2.39%
[5]; 1.11E-06 M TKI
  %Activity VEGFR3: 8.63%
[5]; 1.23E-07 M TKI
  %Activity VEGFR3: 30.49%
[5]; 1.37E-08 M TKI
  %Activity VEGFR3: 60.22%
[5]; 1.52E-09 M TKI
  %Activity VEGFR3: 79.65%
[5]; 3.33E-06 M TKI
  %Activity VEGFR3: 4.43%
[5]; 3.70E-07 M TKI
  %Activity VEGFR3: 18.98%
[5]; 4.12E-08 M TKI
  %Activity VEGFR3: 44.44%
[5]; 4.57E-09 M TKI
  %Activity VEGFR3: 68.37%
[5]; 5.08E-10 M TKI
  %Activity VEGFR3: 81.12%
[5]; Fig 3A inset, unit inferred, plot axes in (M), read-out: Compound IC50 data for VEGFR-3: IC50
  IC50: 3.39e-08 M
[6]; 1uM TKI
  Avg % Inhibition FGFR2: 56.64%
[6]; 10uM TKI
  Avg % Inhibition FGFR2: 90.82%
[7]; 1uM TKI
  Avg % Inhibition VEGFR3: 90.14%
[7]; 10uM TKI
  Avg % Inhibition VEGFR3: 98.55%
[8]; determined by Millipore Corporation prior to the study, read-out: VEGFR2 IC50 (used to set CAM doses)
  IC50: 52 nM
[8]; previously reported, read-out: VEGFR2 IC50
  IC50: 1.12 nM
[9]; 1uM TKI
  Avg % Inhibition FGFR1: 28.53%
[9]; 10uM TKI
  Avg % Inhibition FGFR1: 65.32%
[10]; 1.00E-05 M TKI, 10μM ATP
  %Activity VEGFR1: 15.82%
[10]; 1.11E-06 M TKI, 10μM ATP
  %Activity VEGFR1: 42.07%
[10]; 1.37E-08 M TKI, 10μM ATP
  %Activity VEGFR1: 89.38%
[10]; 1.52E-09 M TKI, 10μM ATP
  %Activity VEGFR1: 85.26%
[10]; 3.33E-06 M TKI, 10μM ATP
  %Activity VEGFR1: 22.84%
[10]; 3.70E-07 M TKI, 10μM ATP
  %Activity VEGFR1: 64.45%
[10]; 4.12E-08 M TKI, 10μM ATP
  %Activity VEGFR1: 79.63%
[10]; 4.57E-09 M TKI, 10μM ATP
  %Activity VEGFR1: 88.85%
[10]; Compound IC50 data for VEGFR-1: IC50, Fig 3A inset, unit inferred, plot axes in (M), 10μM ATP
  IC50: 9.44e-07 M
[10]; IC50 VEGFR1, 10μM ATP, S1 Dataset
  IC50: 9.44e-07 M
[11]; 1uM TKI
  Avg % Inhibition VEGFR2: 74.78%
[11]; 10uM TKI
  Avg % Inhibition VEGFR2: 86.6%
[12]; S1 Dataset, read-out: IC50 VEGFR2
  IC50: 7.61e-08 M
[12]; 1.00E-05 M TKI
  %Activity VEGFR2: 7.53%
[12]; 1.11E-06 M TKI
  %Activity VEGFR2: 15.96%
[12]; 1.23E-07 M TKI
  %Activity VEGFR2: 39.66%
[12]; 1.37E-08 M TKI
  %Activity VEGFR2: 76.92%
[12]; 1.52E-09 M TKI
  %Activity VEGFR2: 90.70%
[12]; 3.33E-06 M TKI
  %Activity VEGFR2: 8.61%
[12]; 3.70E-07 M TKI
  %Activity VEGFR2: 24.16%
[12]; 4.12E-08 M TKI
  %Activity VEGFR2: 62.72%
[12]; 4.57E-09 M TKI
  %Activity VEGFR2: 90.18%
[12]; 5.08E-10 M TKI
  %Activity VEGFR2: 99.81%
[12]; Fig 3A inset, unit inferred, plot axes in (M), read-out: Compound IC50 data for VEGFR-2: IC50
  IC50: 7.61e-08 M
[13]; 1uM TKI
  Avg % Inhibition FGFR3: 63.96%
[13]; 10uM TKI
  Avg % Inhibition FGFR3: 86.13%
